In test [1] the target is T1, PspA (SynPspA, PspA wild type, slr1188) (Synechocystis sp. PCC 6803, UniProt P74717).
T1 construct: gene im30; 28 kDa band
Briefly: inhibition of ATPase activity. The format is biochemical. The settings on record: high concentration needed; against ATP hydrolysis; non-hydrolysable analogue.

For test [2], the target named is T1, PspA (SynPspA, PspA wild type, slr1188). Briefly: cryo-EM structure of helical rods. The test is classed as binding. Conditions: rods refolded with 2 mM ATP, 4 mM MgCl2; ADP modelled in weak density, incomplete occupancy; site near α3/α4 loop between four chains; 180, 200, 215, 235 Å rods.
For test [3] the target is unchanged. Briefly: inhibition of ATPase activity. The test is classed as biochemical. Conditions: high concentration needed; against ATP hydrolysis; non-hydrolysable analogue. The source holds these as a separate data set.
For a further test, the target named is T2, PspA α1–α5 (Synechocystis sp. PCC 6803, UniProt P74717).
T2 construct: gene im30; helix α0 removed (amino acids 1-23 in Methods; 'first 22 amino acids' in Results); 25 kDa band
Briefly: malachite-green phosphate release; ADP-Glo. The test is classed as biochemical. Conditions: 2 mM ATP, 4 mM MgCl2, 10 mM Tris-HCl pH 8.0, 37 °C. (ADP-Glo first removes unused ATP, then detects ADP through luciferase.)

The target of test [4] is T1, PspA (SynPspA, PspA wild type, slr1188). Nature of the test: malachite-green phosphate release; ADP-Glo; bound nucleotide by HPLC-MS/MS. The test is classed as biochemical. Conditions: 2 mM ATP, 4 mM MgCl2, 10 mM Tris-HCl pH 8.0, 37 °C.
Test [5] has as its target T3, PspA (SynPspA, PspA wild type, slr1188) (Synechocystis sp. PCC 6803, UniProt P74717, R44K/E126Q/E179Q).
T3 construct: gene im30; 28 kDa band
Nature of the test: bound nucleotide by HPLC-MS/MS after washing; malachite-green ATPase. The test is classed as biochemical. Conditions: 2 mM ATP, 4 mM MgCl2, 10 mM Tris-HCl pH 8.0, 37 °C, 24 h.

For a further test, the target named is T4, PspF(1–275) (EcoPspF) (Escherichia coli, UniProt P37344).
T4 construct: residues 1-275, E. coli BL21 (DE3), pET50(b)-derived plasmid, Ni-NTA purified
Briefly: ATPase activity. The format is biochemical. Conditions: comparison ATPase.

Results on four molecules are retold here after PMC11746142, “Structural plasticity of bacterial ESCRT-III protein PspA in higher-order assemblies” (Nature Structural & Molecular Biology, 2024).

T1 sequence (P74717 entry or part of it): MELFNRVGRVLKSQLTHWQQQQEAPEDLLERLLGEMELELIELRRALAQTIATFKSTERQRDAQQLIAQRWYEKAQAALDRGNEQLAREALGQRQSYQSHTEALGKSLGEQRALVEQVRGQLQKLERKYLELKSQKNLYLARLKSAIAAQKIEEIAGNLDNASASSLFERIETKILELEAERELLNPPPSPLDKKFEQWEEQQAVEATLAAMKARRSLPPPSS
T2 sequence (P74717 entry or part of it): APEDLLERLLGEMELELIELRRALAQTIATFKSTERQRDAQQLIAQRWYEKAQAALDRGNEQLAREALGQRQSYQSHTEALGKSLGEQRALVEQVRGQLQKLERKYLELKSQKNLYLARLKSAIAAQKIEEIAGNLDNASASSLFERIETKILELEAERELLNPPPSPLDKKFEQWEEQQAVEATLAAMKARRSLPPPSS
T4 sequence (P37344 1-275): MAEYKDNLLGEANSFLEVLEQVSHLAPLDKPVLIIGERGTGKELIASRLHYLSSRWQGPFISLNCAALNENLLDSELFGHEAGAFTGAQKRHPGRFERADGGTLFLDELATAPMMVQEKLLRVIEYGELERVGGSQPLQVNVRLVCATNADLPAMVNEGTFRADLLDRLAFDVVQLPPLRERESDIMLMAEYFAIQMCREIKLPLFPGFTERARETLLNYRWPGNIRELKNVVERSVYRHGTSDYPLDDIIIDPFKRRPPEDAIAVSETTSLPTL
T3 sequence (P74717 entry or part of it R44K/E126Q/E179Q): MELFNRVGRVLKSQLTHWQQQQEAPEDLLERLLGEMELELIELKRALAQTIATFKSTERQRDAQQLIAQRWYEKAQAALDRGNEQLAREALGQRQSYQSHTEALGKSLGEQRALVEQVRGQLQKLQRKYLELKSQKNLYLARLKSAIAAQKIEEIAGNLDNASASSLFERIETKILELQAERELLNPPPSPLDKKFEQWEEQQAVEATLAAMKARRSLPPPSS

As for `Nc1ncnc2c1ncn2[C@@H]1O[C@H](COP(=O)(O)OP(=O)(O)OP(O)(O)=S)[C@@H](O)[C@H]1O` [ATPγS], in test [1], the “ATPase activity vs ATPγS concentration” value is “could be decreased by high concentrations of ATPase inhibitors such as ATPγS or AMPPCP”. For `Nc1ncnc2c1ncn2[C@@H]1O[C@H](COP(=O)(O)OP(=O)(O)O)[C@@H](O)[C@H]1O` [ADP], the “cryo-EM structure of helical rods” value in test [2] is “Models of PspA apo (PDB:7ABK) and PspA+ATP with an ADP model fitted”. On to `Nc1ncnc2c1ncn2[C@@H]1O[C@H](COP(=O)(O)OP(=O)(O)CP(=O)(O)O)[C@@H](O)[C@H]1O` [AMPPCP], for which the “ATPase activity vs AMPPCP concentration” value in test [3] was “could be decreased by high concentrations of ATPase inhibitors such as ATPγS or AMPPCP”. As for `Nc1ncnc2c1ncn2[C@@H]1O[C@H](COP(=O)(O)OP(=O)(O)OP(=O)(O)O)[C@@H](O)[C@H]1O` [ATP], at PspA α1–α5, the “malachite-green phosphate release; ADP-Glo” value is “did not significantly reduce the ATPase activity”. Further, in test [4], the “malachite-green phosphate release; ADP-Glo; bound nucleotide by HPLC-MS/MS” value is “PspA can bind and hydrolyze ATP”. In addition, the “bound nucleotide by HPLC-MS/MS after washing; malachite-green ATPase” value in test [5] was “R44K/E126Q/E179Q mutant was still capable of ATP binding and hydrolysis”. Besides, at PspF(1–275) (EcoPspF), the ATPase activity result is listed as “approximately ten times lower than bona fide AAA+ ATPases, such as E. coli PspF”.
